In patent US20060211606A1, “Peptides” (priority 2005, published 2006):

System: Human Skeletal Muscle Myoblasts (HSMM)
Test: HSMM proliferation, BrdU incorporation
Type: cell-based
Settings: 48 hours; A5 significant (P<0.1) at doses of 10 ng/ml and below; IGF-I alone 0.1, 10 and 100 ng/ml
Protocol: (A) Peptide A5: HSMM cells at 500 cells/well. Cultivation was carried out for 24 hours in 10% FCS, followed by two washes in serum free medium, stimulation for 48 hours and then treatment with BrdU for 5 hours. Concentrations of 0.1, 1, 10, 100 and 500 ng/ml of peptide A5 were tested, along with 0.1, 1, 10 and 100 ng/ml IGF-I. BrdU incorporation was measured to assess the level of cell proliferation achieved. Controls containing medium only, no cells (BLK), background staining (BG) and 10% FBS were also provided. Values on the Y-axis are for fluorescence (absorbence at 370 nm; mean plus standard error across 4 wells). The first five columns relate to peptide A5 at concentrations of 0.1, 1, 10, 100 and 500 ng/ml. The next column relates to the control containing medium only. The next three relate to IGF-I (See Example 1.5) alone at concentrations of 100, 10 and 0.1 ng/ml. The next three relate to controls containing 10% FBS, background staining and no cells respectively. * means P<0.05 compared to medium only control.
(B) Peptide AS: HSMM cells at 500 cells/well. […] Concentrations of 0.1, 1, 10, 100 and 500 ng/ml of peptide AS in combination with 2 ng/ml IGF-I were tested, along with 0.1, 1, 10 and 100 ng/ml IGF-I. BrdU incorporation was measured to assess the level of cell proliferation achieved. […] Values on the Y-axis are for fluorescence (absorbence at 370 nm; mean plus standard error across 4 wells). […]
(A) Peptide AS: HSMM cells at 500 cells/well. […] Concentrations of 0.1, 1, 10, 100 and 500 ng/ml of peptide AS were tested, along with 0.1, 1, 10 and 100 ng/ml IGF-I. BrdU incorporation was measured to assess the level of cell proliferation achieved. […] Values on the Y-axis are for fluorescence (absorbence at 370 nm; mean plus standard error across 4 wells). […]
(B) Peptide A5: HSMM cells at 500 cells/well. […] Concentrations of 0.1, 1, 10, 100 and 500 ng/ml of peptide AS in combination with 2 ng/ml IGF-I were tested, along with 0.1, 1, 10 and 100 ng/ml IGF-I. BrdU incorporation was measured to assess the level of cell proliferation achieved. […]

Substance: IGF-I: IGF-I receptor binding domain encoded by Exons 3 and 4, common to all splice variants, approximately 70 amino acids [reference compound]
- proliferation of HSMM (BrdU incorporation), used in isolation: no significant effect
